Test results from PMC7914897, “Cytotoxic Potential of a-Azepano- and 3-Amino-3,4-SeCo-Triterpenoids” (International Journal of Molecular Sciences, 2021).

How the values were obtained:
SR (Leukemia) = test: NCI-60 screen (SRB, 48 h); format: cell-based
MDA-MB-435 (Melanoma) = test: NCI-60 screen (SRB, 48 h); format: cell-based; conditions: Homo sapiens
Leukemia subpanel = test: cells; conditions: Homo sapiens
OVCAR-3 (Ovarian cancer) = test: cells; conditions: Homo sapiens
Melanoma subpanel = test: NCI-60 screen, subpanel; conditions: Homo sapiens
Prostate cancer subpanel = test: NCI-60 screen, subpanel; conditions: Homo sapiens
CCRF-CEM (Leukemia) = test: NCI-60 screen (SRB, 48 h); conditions: Homo sapiens
K-562 (Leukemia) = test: NCI-60 screen (SRB, 48 h); conditions: Homo sapiens
MOLT-4 (Leukemia) = test: NCI-60 screen (SRB, 48 h); conditions: Homo sapiens
RPMI-8226 (Leukemia) = test: NCI-60 screen (SRB, 48 h); conditions: Homo sapiens
HOP-92 (NSC lung cancer) = test: NCI-60 screen (SRB, 48 h); conditions: Homo sapiens
[1] = test system: NCI-H226 (NSC lung cancer); test: NCI-60 screen (SRB, 48 h); conditions: Homo sapiens
COLO 205 (Colon cancer) = test: NCI-60 screen (SRB, 48 h); conditions: Homo sapiens
HCC-2998 (Colon cancer) = test: NCI-60 screen (SRB, 48 h); conditions: Homo sapiens
HCT-15 (Colon cancer) = test: NCI-60 screen (SRB, 48 h); conditions: Homo sapiens
HT29 (Colon cancer) = test: NCI-60 screen (SRB, 48 h); conditions: Homo sapiens
KM12 (Colon cancer) = test: NCI-60 screen (SRB, 48 h); conditions: Homo sapiens
SW-620 (Colon cancer) = test: NCI-60 screen (SRB, 48 h); conditions: Homo sapiens
SNB-19 (CNS cancer) = test: NCI-60 screen (SRB, 48 h); conditions: Homo sapiens
MALME-3M (Melanoma) = test: NCI-60 screen (SRB, 48 h); conditions: Homo sapiens
SK-MEL-5 (Melanoma) = test: NCI-60 screen (SRB, 48 h)
UACC-257 (Melanoma) = test: NCI-60 screen (SRB, 48 h); conditions: Homo sapiens
IGROV1 (Ovarian cancer) = test: NCI-60 screen (SRB, 48 h); conditions: Homo sapiens
TK-10 (Renal cancer) = test: NCI-60 screen (SRB, 48 h); conditions: Homo sapiens
UO-31 (Renal cancer) = test: NCI-60 screen (SRB, 48 h); conditions: Homo sapiens
DU-145 (Prostate cancer) = test: NCI-60 screen (SRB, 48 h); conditions: Homo sapiens
MCF7 (Breast cancer) = test: NCI-60 screen (SRB, 48 h); conditions: Homo sapiens
HS 578T (Breast cancer) = test: NCI-60 screen (SRB, 48 h); conditions: Homo sapiens
T-47D (Breast cancer) = test: NCI-60 screen (SRB, 48 h); conditions: Homo sapiens, T47D

C=C(C)C1CCC2(CO)CCC3(C)C(CCC4C5(C)CCCNC(C)(C)C5CCC43C)C12 (stereo not shown) [Compound 1, Azepanobetulin]
TGI (SR (Leukemia)): 3.79 µM
GI50 (SR (Leukemia); Homo sapiens): 1.59 µM
IC (TGI) (MDA-MB-435 (Melanoma); MDA-MB-435, 48 h, read-out: TGI): 2.95 µM
GI50 (MDA-MB-435 (Melanoma); MDA-MB-435, read-out: GI50): 1.56 µM
IC (TGI) (Leukemia subpanel; 48 h, read-out: TGI MG_MID): 4.3 µM
GI50 (Leukemia subpanel; read-out: GI50 MG_MID): 1.69 µM
CC50 (Leukemia subpanel; read-out: LC50 MG_MID): > 100 µM
GI50 (OVCAR-3 (Ovarian cancer); OVCAR-3): 1.66 µM
IC (TGI) (OVCAR-3 (Ovarian cancer); OVCAR-3, 48 h, read-out: TGI): 3.13 µM
CC50 (OVCAR-3 (Ovarian cancer); OVCAR-3, read-out: LC50): 5.91 µM
IC (TGI) (Melanoma subpanel; 48 h, read-out: TGI MG_MID): 3.19 µM
GI50 (Melanoma subpanel; read-out: GI50 MG_MID): 1.64 µM
CC50 (Melanoma subpanel; read-out: LC50 MG_MID): 6.12 µM
IC (TGI) (Prostate cancer subpanel; 48 h, read-out: TGI MG_MID): 2.98 µM
GI50 (Prostate cancer subpanel; read-out: GI50 MG_MID): 2.98 µM
CC50 (Prostate cancer subpanel; read-out: LC50 MG_MID): 5.66 µM
GI50 (CCRF-CEM (Leukemia)): 2.07 µM
IC (TGI) (CCRF-CEM (Leukemia); 48 h, read-out: TGI): 4.91 µM
CC50 (CCRF-CEM (Leukemia); read-out: LC50): > 100 µM
GI50 (K-562 (Leukemia); K562): 1.08 µM
IC (TGI) (K-562 (Leukemia); K562, 48 h, read-out: TGI): 3.79 µM
CC50 (K-562 (Leukemia); K562, read-out: LC50): > 100 µM
GI50 (MOLT-4 (Leukemia); MOLT-4): 1.79 µM
IC (TGI) (MOLT-4 (Leukemia); MOLT-4, 48 h, read-out: TGI): 4.5 µM
CC50 (MOLT-4 (Leukemia); MOLT-4, read-out: LC50): > 100 µM
GI50 (RPMI-8226 (Leukemia); RPMI-8226): 1.94 µM
IC (TGI) (RPMI-8226 (Leukemia); RPMI-8226, 48 h, read-out: TGI): 4.51 µM
CC50 (RPMI-8226 (Leukemia); RPMI-8226, read-out: LC50): > 100 µM
GI50 (HOP-92 (NSC lung cancer); HOP-92): 1.73 µM
IC (TGI) (HOP-92 (NSC lung cancer); HOP-92, 48 h, read-out: TGI): 3.33 µM
CC50 (HOP-92 (NSC lung cancer); HOP-92, read-out: LC50): 6.42 µM
GI50 ([1]; NCI-H226): 1.98 µM
IC (TGI) ([1]; NCI-H226, 48 h, read-out: TGI): 4.09 µM
CC50 ([1]; NCI-H226, read-out: LC50): 8.43 µM
GI50 (COLO 205 (Colon cancer); COLO 205): 1.54 µM
IC (TGI) (COLO 205 (Colon cancer); COLO 205, 48 h, read-out: TGI): 3.24 µM
CC50 (COLO 205 (Colon cancer); COLO 205, read-out: LC50): 6.82 µM
GI50 (HCC-2998 (Colon cancer); HCC 2998): 1.51 µM
IC (TGI) (HCC-2998 (Colon cancer); HCC 2998, 48 h, read-out: TGI): 2.93 µM
CC50 (HCC-2998 (Colon cancer); HCC 2998, read-out: LC50): 5.68 µM
GI50 (HCT-15 (Colon cancer); HCT-15): 1.39 µM
IC (TGI) (HCT-15 (Colon cancer); HCT-15, 48 h, read-out: TGI): 2.77 µM
CC50 (HCT-15 (Colon cancer); HCT-15, read-out: LC50): 5.52 µM
GI50 (HT29 (Colon cancer); HT-29): 1.27 µM
IC (TGI) (HT29 (Colon cancer); HT-29, 48 h, read-out: TGI): 2.85 µM
GI50 (KM12 (Colon cancer); KM12): 1.73 µM
IC (TGI) (KM12 (Colon cancer); KM12, 48 h, read-out: TGI): 3.24 µM
CC50 (KM12 (Colon cancer); KM12, read-out: LC50): 6.09 µM
GI50 (SW-620 (Colon cancer); SW-620): 1.81 µM
IC (TGI) (SW-620 (Colon cancer); SW-620, 48 h, read-out: TGI): 3.41 µM
CC50 (SW-620 (Colon cancer); SW-620, read-out: LC50): 6.44 µM
GI50 (SNB-19 (CNS cancer); SNB-19): 1.75 µM
IC (TGI) (SNB-19 (CNS cancer); SNB-19, 48 h, read-out: TGI): 3.2 µM
CC50 (SNB-19 (CNS cancer); SNB-19, read-out: LC50): 5.86 µM
GI50 (MALME-3M (Melanoma)): 1.5 µM
IC (TGI) (MALME-3M (Melanoma); 48 h, read-out: TGI): 3.05 µM
CC50 (MALME-3M (Melanoma); read-out: LC50): 6.18 µM
GI50 (SK-MEL-5 (Melanoma); Homo sapiens, SK-MEL-5): 1.38 µM
IC (TGI) (SK-MEL-5 (Melanoma); Homo sapiens, SK-MEL-5, 48 h, read-out: TGI): 2.7 µM
CC50 (SK-MEL-5 (Melanoma); Homo sapiens, SK-MEL-5, read-out: LC50): 5.28 µM
Growth % of the Most Sensitive Cell Lines (SK-MEL-5 (Melanoma); SK-MEL-5, 1 dose 10 µM): −82.49%
GI50 (UACC-257 (Melanoma); UACC-257): 1.95 µM
IC (TGI) (UACC-257 (Melanoma); UACC-257, 48 h, read-out: TGI): 3.73 µM
CC50 (UACC-257 (Melanoma); UACC-257, read-out: LC50): 7.14 µM
GI50 (IGROV1 (Ovarian cancer); IGROV-1): 1.65 µM
IC (TGI) (IGROV1 (Ovarian cancer); IGROV-1, 48 h, read-out: TGI): 3.26 µM
CC50 (IGROV1 (Ovarian cancer); IGROV-1, read-out: LC50): 6.44 µM
GI50 (TK-10 (Renal cancer); TK-10): 1.76 µM
IC (TGI) (TK-10 (Renal cancer); TK-10, 48 h, read-out: TGI): 3.5 µM
CC50 (TK-10 (Renal cancer); TK-10, read-out: LC50): 6.96 µM
GI50 (UO-31 (Renal cancer); UO-31): 1.56 µM
IC (TGI) (UO-31 (Renal cancer); UO-31, 48 h, read-out: TGI): 2.99 µM
CC50 (UO-31 (Renal cancer); UO-31, read-out: LC50): 5.74 µM
GI50 (DU-145 (Prostate cancer); DU-145): 3.02 µM
IC (TGI) (DU-145 (Prostate cancer); DU-145, 48 h, read-out: TGI): 3.02 µM
CC50 (DU-145 (Prostate cancer); DU-145, read-out: LC50): 5.58 µM
GI50 (MCF7 (Breast cancer); MCF7): 1.29 µM
IC (TGI) (MCF7 (Breast cancer); MCF7, 48 h, read-out: TGI): 2.77 µM
CC50 (MCF7 (Breast cancer); MCF7, read-out: LC50): 5.94 µM
GI50 (HS 578T (Breast cancer)): 1.99 µM
IC (TGI) (HS 578T (Breast cancer); 48 h, read-out: TGI): 4.79 µM
CC50 (HS 578T (Breast cancer); read-out: LC50): 31 µM
GI50 (T-47D (Breast cancer)): 1.73 µM
IC (TGI) (T-47D (Breast cancer); 48 h, read-out: TGI): 3.71 µM
CC50 (T-47D (Breast cancer); read-out: LC50): 7.96 µM
